Columns and labels:
[1] = test system: Human 460 large cell lung carcinoma cells; assay: BaP exposure of H460 cells: cell count and trypan blue viability; type: cell-based; conditions: for cell number at conclusion of exposure, mean (±SEM): 48 hour
From the text: (§1) Human 460 large cell lung carcinoma cells were authenticated by the UA tissue culture core facility and then cultured in RPMI media (Gibco) supplemented with 10% exosome-free FBS. One day before exposure, cells were counted, seeded, and allowed to attach overnight. Prior to each exposure, medium was removed and cells were washed with PBS to remove cellular debris and extracellular vesicles. After exposure, culture medium was harvested for exosome collection, cells were detached with trypsin-EDTA (Gibco), counted via hemocytometer, and cell viability was assessed using trypan blue exclusion.

[2] = test system: Lung tissues in ORFeus^LSL mice; assay: Lung histology and general toxicity after intratracheal instillation; type: in vivo
Experimental: (§2) A BioLite Intubation System (Braintree Scientific Inc, USA) was used for intratracheal instillation of ORFeus^LSL mice (29-38 g) anesthetized with ketamine and xylazine (100 mg/kg and 10 mg/kg, respectively). All mice were genotyped to confirm genetic identity. Control mice were given one dose of 5×10^10 PFU adenoCRE recombinase dissolved in H2O or DMSO. The optimal adenovirus dose was defined empirically as a dose that only modestly activated the transgene. […] Mice were sacrificed by cervical dislocation after euthanasia with CO2 one-week after treatment. Tissues were collected and stored at 4° C. in RNA later (Thermo Fisher Scientific, CA).
Lung sections were snap-frozen in OCT. Tissues were fixed with cold acetone and stained with hematoxylin and eosin. Samples were evaluated blindly by two pathologists.

LINE-1 mRNA = LINE-1 mRNA and RNA in cells and exosomes by RT-qPCR; type: cell-based, Human; conditions: H460 exosomes
From the text: as §1
(§3) Nucleic acids were extracted from cell and exosome pellets using the Quick DNA-RNA Miniprep Plus. RNA was subjected to an additional DNAseI digestion on-column (RNA from cells) or prior to reverse transcription (RNA from exosomes; Turbo DNA-free; Invitrogen). Following isolation DNA and RNA quantity and integrity were assessed using the Cytation X system. LINE-1 mRNA was detected in equal volumes of exosome RNA using OneStep RT-qPCR (NEB). To assess cellular LINE-1 mRNA levels, LINE-1 mRNA was normalized to B-Actin mRNA and expressed as a fold change from control using the Pfaffl technique. […] Briefly, the fluorescence units from the reverse transcription control (RTC; no reverse transcriptase enzyme) for each sample was subtracted from the complete sample amplification and the remaining fluorescence units were divided by cell number. The resulting values approximate the amount of LINE-1 or BActin mRNA present in exosomes that is also normalized by cell number. LINE-1 DNA copies were quantified using absolute qPCR quantification. Briefly, known copy numbers of plasmids bearing the LINE-1 sequence were used to create a standard curve, which could then be used to calculated copy number from samples. These copy numbers were then divided by cell number to yield the number of LINE-1 DNA copies per cell (cellular DNA) and the number of exosome LINE-1 DNA copies per cell (exosome DNA).

[3] = test system: H460 large cell lung cancer cells; assay: Exosome quantity and size by Nanosight NTA after BaP exposure; type: cell-based, Human; design: number of exosomes released per cell: dose or concentration left out as unconfirmed
From the text: as §1
Cell media was centrifuged at 500×g for 5 minutes to remove cells and large debris and then stored at −80° C. To isolate exosomes, cell medium was centrifuged at 25,000×g for 1.5 hours to remove apoptotic bodies and other large extracellular vesicles. To precipitate exosomes, polyethylene glycol (PEG) MW 6,000 was added to the supernatant to a final concentration of 10% (w/v), and centrifuged again at 15,000×g for 30 minutes. Each exosome pellet was resuspended in 2 mL PBS, which was then subdivided into fractions for Nanosight Nanoparticle Tracking Analysis (NTA), nucleic acid extraction, and protein extraction. Nucleic acids and proteins present outside of exosomes were enzymatically digested to prevent confounding of exosome cargo analysis. Exosome fractions designated for nucleic acid analysis were treated with DNAseI for 30 minutes at 37° C. and RNAseA for 5 minutes at RT and then supplemented with RNA Secure (Invitrogen) prior to lysis. Exosome fractions designated for protein analysis were treated with proteinaseK for 30 minutes at 37° C. Following enzymatic digestion, exosomes were pelleted a final time by addition of PEG 6,000 to 10%, and centrifugation at 15,000×g for 15 minutes. To assess exosome size and quantity, Nanosight NTA was performed. Each sample was read five times and the sample grand mean and standard error for each nanoparticle size bin were reported. Nanosight experiments were performed in technical duplicate. […]

LINE-1 DNA = LINE-1 DNA copies in cells and exosomes by absolute qPCR; type: cell-based, Human; conditions: for exosome LINE-1 DNA copies released per cell, mean (±SE): H460 exosomes
From the text: as §1, §3

[4] = test system: ORFeus^LSL transgene (human LINE-1); assay: ORFeus LINE-1 mRNA by RT-qPCR in mouse tissues; type: in vivo, mice
Experimental: as §2, with “DMSO.” for “DMSO. The optimal adenovirus dose was defined empirically as a dose that only modestly activated the transgene.”
RNA was extracted using the RNeasy Plus Mini Kit (Qiagen, MD). An aliquot of 250 ng RNA was reverse transcribed into first-strand cDNA using SuperScript® III (Invitrogen, CA). RT-qPCR was carried out for LINE-1 and nine genes within its oncogenic regulatory network. […] GAPDH was used as a control. Each reaction included 4.0 μL of cDNA, 0.5 μL of gene-specific primer pairs, and 5.0 μL SyberGreen dye and ddH2O to a final volume of 20 μL. Amplifications were completed using StepOnePlus™ RT-qPCR System and fold changes calculated using 2^−ΔΔct.

LINE-1 = LINE-1 mRNA and ORF1p in extracellular vesicles of BaP-stimulated H460 cells; type: cell-based, human; conditions: 48 h, various concentrations
Experimental: EV isolation: Media were centrifuged at 500×g for 5 min to remove cells and concentrated using a 100 kDa MWCO Amicon filter. Samples were then centrifuged at 25,000×g for 30 min to pellet apoptotic vesicles and cellular debris followed by ultracentrifugation at 100,000×g for 2 h. The EV pellet was washed in PBS and either re-centrifuged at 100,000×g or loaded onto an iodixanol gradient.
Total RNA was harvested (Zymo) and subjected to post-elution DNAse digestion. A cDNA was created using oligo d (T) primers. Gene expression analysis was performed via qPCR using probe-based detection. Expression was expressed as a fold change from the EV-free medium (EFM).

L1-ORF1p = L1-ORF1p expression by immunoblotting in lung cells treated with NCL antagonists; type: cell-based, human
Experimental: Cell lines were purchased from the American Type Culture Collection (ATCC). Cells were grown in a humidified environment at 37° C. with 5% CO2. Cell lines were confirmed to be free of mycoplasma contamination (MycoAlert; Lonza). NSCLC cell lines (NCI-H460, NCI-H520, NCI-H1299, and A549) were grown in RPMI medium supplemented with fetal bovine serum at a concentration of 10%, […] penicillin and […] streptomycin (Life Technologies). The human bronchial epithelial cell lines BEAS-2B and BZR were grown in LHC-9 medium (Thermo Fisher Scientific). Verification of all cell line identities was performed by short tandem repeat (STR) sequencing using reference databases from ATCC (Genetics Core, University of Arizona, AZ). […] All protein concentrations were determined using the bicinchoninic acid assay (Thermo Fisher Scientific).
Total cell lysates were resolved by SDS-polyacrylamide gel electrophoresis and electrotransferred onto polyvinylidene fluoride membranes (Millipore) in Tris-glycine buffer containing 20% methanol. Proteins were detected by immunoblotting. […]

[5] = molecular target: the molecule itself; assay: Western blot of EV iodixanol gradient fractions (self-association)

## c1ccc2c(c1)cc1ccc3cccc4ccc2c1c34 [BaP, benzo[a]pyrene]
[1]; 48 hour exposure
  cell proliferation: reduce cell proliferation in a dose-dependent manner
[1]; 0.5 μM
  cell number at conclusion of exposure, mean (±SEM): 14.0±2.3 million cells
[1]; 1 μM
  cell number at conclusion of exposure, mean (±SEM): 11.1±1.9 million cells
[2]; ORFeus^LSL mice, at any time
  toxic effects in treated mice: No dramatic toxic effects
[2]; mouse, in vivo
  lung histology: leukocytic infiltration: significant leukocytic infiltration into the lungs
  lung histology: vessel congestion and mononuclear cell infiltration: pulmonary vessel congestion with focal-to-diffuse mononuclear cell infiltration into parenchyma
LINE-1 mRNA
  exosome LINE-1 mRNA, Pfaffl method normalized to B-Actin mRNA: did not observe significant increases
LINE-1 mRNA; 0.25 μM
  LINE-1 mRNA export in exosomes per cell: approximately two-fold
LINE-1 mRNA; 0.5 μM
  LINE-1 mRNA export in exosomes per cell: approximately two-fold
LINE-1 mRNA; 1 μM
  LINE-1 mRNA export in exosomes per cell: decreased export
  quantity of total exosome RNA: 83.26 ± 16.94 ng
LINE-1 mRNA; fluorescence units adjusted by cell number
  exosome B-Actin mRNA released per cell: dose-dependent increases
[3]; 0.25 μM
  size range in which more exosomes were produced: 64.5 to 71.5 nM
[3]; 1 μM
  size range in which more exosomes were produced: 61.5 to 77.5 nM
[3]; particles 30-150 nm normalized to cell number
  number of exosomes released per cell: increased
LINE-1 DNA; H460 cells
  cellular LINE-1 DNA copies per cell: did not significantly change
LINE-1 DNA; 0.25 μM
  exosome LINE-1 DNA copies released per cell, mean (±SE): 61.04±31.3 copies
LINE-1 DNA; 0.5 μM
  exosome LINE-1 DNA copies released per cell, mean (±SE): 62.43±28.98 copies
LINE-1 DNA; 1 μM
  exosome LINE-1 DNA copies released per cell, mean (±SE): 85.96±51.21 copies
[4]; male and female lungs, one week after treatment
  ORFeus LINE-1 mRNA expression in lung: significantly increased expression of the transgene
[4]; stomach, heart, kidney, liver, intestine
  activation of the LINE-1 transgene in other tissues: only stomach, but not heart, kidney, liver or intestine, showed activation of the LINE-1 transgene
LINE-1
  EV LINE-1 levels versus cellular LINE-1 levels: mirrored within EVs

## 5′-GGTGGTGGTGGTTGTGGTGGTGGTGG-3′ (SEQ ID NO:2) (DNA, backbone not given here) [AS1411, oligodeoxynucleotide DNA aptamer targeting nucleolin]
L1-ORF1p; NCI-H520 cells, high concentrations (20 μM)
  L1-ORF1p protein expression: without effect
L1-ORF1p; any of the cell lines (data not shown)
  L1-ORF1p protein expression: without effect

B1: human LINE-1 ORF1 protein (L1-ORF1p) (other, UniProt Q9UN81 1-338, looked up)
chain: MGKKQNRKTGNSKTQSASPPPKERSSSPATEQSWMENDFDELREEGFRRSNYSELREDIQTKGKEVENFEKNLEECITRITNTEKCLKELMELKTKARELREECRSLRSRCDQLEERVSAMEDEMNEMKREGKFREKRIKRNEQSLQEIWDYVKRPNLRLIGVPESDVENGTKLENTLQDIIQENFPNLARQANVQIQEIQRTPQRYSSRRATPRHIIVRFTKVEMKEKMLRAAREKGRVTLKGKPIRLTADLSAETLQARREWGPIFNILKEKNFQPRISYPAKLSFISEGEIKYFIDKQMLRDFVTTRPALKELLKEALNMERNNRYQPLQNHAKM
notes: Endogenous protein detected on Western blots of human cell lysates and EV extracts; Seen as a monomer, a dimer and higher multimers
[5]
  binding result: binds

Reference: patent publication US12698534B2, “Systems and methods for characterizing and treating disease” (Arizona Board of Regents on Behalf of the University of …, priority 2019, dated 2026)
